Patent publication US9790496B2, “Microrna compounds and methods for modulating MIR-21 activity” (Regulus Therapeutics, Inc., priority 2011, dated 2017)
Where “and” joins values, the source holds several entries; their conditions need not be identical. Identical values can stand only once. Entries after “also recorded” stand apart in the source; their conditions may differ.

Legend:
[1] = test system: miR-21; test: miR-21 luciferase sensor assay in Hela cells; assay type: cell-based
[2] = test system: unilateral ureteral obstruction (UUO) model of fibrosis; test: UUO model: collagen area fraction of kidney tissue (picrosirius red histology); assay type: in vivo, mice; details: UUO comparison study, 25070 20 mg/kg s.c., irbesartan PO
Method: Control treatment groups included UUO only (sham) and UUO with PBS administered subcutaneously. An additional control group included UUO with Tween-MC/20 carrier perorally. 25070 administered subcutaneously at dose of 20 mg/kg at 5 days prior to, 2 days prior to, and 3 days after, the UUO procedure. Irbesartan was administered perorally on daily on days 0 through 7 following the UUO procedure. Animals were sacrificed on Day 10 following the UUO procedure. Kidney tissue was collected for measurement of collagen 1A1 and collagen 3A1 expression.
The ‘collagen area fraction’ is measured histologically through quantitative image processing of the area of kidney tissue that is stained red by the picrosirius red stain; the percent detected as red is normalized by the area of kidney section.

[3] = test system: ischemia reperfusion injury/nephrectomy (IR/Nx) model; test: Ischemia reperfusion injury/nephrectomy (IR/Nx) model: urinary albumin to creatinine ratio; assay type: in vivo, mouse
Excerpt: An ischemia reperfusion injury/nephrectomy (IR/Nx) model is created in the mouse through temporary unilateral clamping of an artery in one kidney, which leads to tubule damage, inflammation, and fibrosis, followed by removal of the second kidney at a later timepoint. In this model, the acute kidney dysfunction phase is useful to test candidate agents for the treatment of acute kidney injury (i.e. up to about the first 5 days), and the later phases of kidney dysfunction are useful to model chronic fibrosis (i.e. after about the first 5 days).
Anti-miR-21 compounds were tested in the IR/Nx model. 25109, a 6-base mismatch to miR-21, was used as a control compound ([…]; where nucleosides not followed by a subscript indicate β-deoxynucleosides; nucleosides followed by a subscript “E” indicate 2′-MOE nucleosides; nucleosides followed by a subscript “S” indicate S-cEt nucleosides; and all internucleoside linkages are phosphorothioate internucleoside linkages).
Unilateral IR was induced for a period of 30 minutes. Treatment groups were as follows: sham IR procedure; IR with PBS administered subcutaneously; IR with mismatched control 25109 administered subcutaneously at a dose of 20 mg/kg; IR with anti-miR-21 compound 25070 administered subcutaneously at a dose of 20 mg/kg; and IR with anti-miR-21 compound 25923 administered subcutaneously at a dose of 20 mg/kg. PBS or anti-miR was administered on days 2, 3, 4, and 8 following IR. On day 8, the healthy kidney was removed by nephrectomy from each animal, and animals were sacrificed on day 9. Just prior to sacrifice, urine was collected by direct bladder puncture.
Urinary albumin to creatinine ratio was measured in the urine from each mouse. […] The geometric mean of the albumin to creatinine ratio in each group of mice was 16 μgAlb/mgCr (nephrectomy-only control), 127 μgAlb/mgCr (IR/Nx, PBS control), 140 μgAlb/mgCr (IR/Nx, 25109 control), 40 μgAlb/mgCr (IR/Nx, 25070), and 31 μgAlb/mgCr (IR/Nx, 25923). Blood urea nitrogen and serum creatinine levels were similar across all IR/Nx mice, and were elevated relative to nephrectomy-only control mice (data not shown).

[4] = test system: collagen 1A1 and collagen 3A1 expression in kidney, ischemia reperfusion injury (IRI) model; test: Unilateral ischemia reperfusion injury (IRI) model: kidney collagen 1A1 and collagen 3A1 expression; assay type: in vivo, mouse; details: 14 day study, dosing Day 5, 6, 7, fold change relative to sham
[5] = In vivo stability: compound in kidney tissue after administration to mice; details: mice; by 7 days post-injection

AECSATCSAGTCSTGAUSAAGCSTAE (ACATCAGTCTGATAAGCTA; modified nucleosides coded in name, code key not given here) [Compound 25070]
luciferase value normalized to beta-galactosidase activity ([1]; 4 nM oligonucleotide, Hela cells, mock transfection 50): 99
luciferase value normalized to beta-galactosidase activity ([1]; .16 nM oligonucleotide, Hela cells, mock transfection 45): 65
luciferase value normalized to beta-galactosidase activity ([1]; .8 nM oligonucleotide, Hela cells, mock transfection 33): 87
inhibition of miR-21 in the luciferase assay (in words) ([1]; Hela cells): demonstrated inhibition of miR-21 in a dose-dependent manner; also recorded: potent inhibitor of miR-21 activity
fold change in luciferase value relative to the mock treatment ([1]; concentration of anti-miR compound 0.2 (unit not given)): 1.04
fold change in luciferase value relative to the mock treatment ([1]; concentration of anti-miR compound 0.6 (unit not given)): 1.01
fold change in luciferase value relative to the mock treatment ([1]; concentration of anti-miR compound 1.9 (unit not given)): 1.14
fold change in luciferase value relative to the mock treatment ([1]; concentration of anti-miR compound 5.6 (unit not given)): 6.22
fold change in luciferase value relative to the mock treatment ([1]; concentration of anti-miR compound 16.7 (unit not given)): 11.28
fold change in luciferase value relative to the mock treatment ([1]; concentration of anti-miR compound 50.0 (unit not given)): 11.00
Collagen Area Fraction (%), Mean ([2]; group mean): 8.0%
Collagen Area Fraction (%), individual animal ([2]; sacrifice Day 10, 20 mg/kg): 7.632% and 9.937% and 8.015% and 6.611% and 6.319% and 11.272% and 6.803% and 7.405%
reduction in urinary albumin to creatinine ratio (in words) ([3]; s.c. 20 mg/kg on days 2, 3, 4, 8): statistically significant reductions
geometric mean of the urinary albumin to creatinine ratio ([3]; s.c. 20 mg/kg on days 2, 3, 4, 8, urine day 9, PBS control 127, nephrectomy-only 16): 40 μgAlb/mgCr
Collagen 1A1 (Normalized Expression), individual animal [4]: 21.7 and 22.8 and 15.8 and 27.6 and 27.1 and 29.3 and 10.8 and 21.5 and 29.9 and 35.0 and 28.3 and 24.2
Collagen 3A1 (Normalized Expression), individual animal [4]: 24.9 and 26.3 and 13.6 and 25.4 and 32.7 and 29.9 and 9.7 and 22.2 and 33.2 and 35.4 and 32.3 and 28.9
compound present in kidney tissue lacking the 3'-terminal nucleoside [5]: about 50%
